Results reported in US12492181B2, “Gem-disubstituted piperidine melanocortin subtype-2 receptor (MC2R) antagonists and uses thereof” (Crinetics Pharmaceuticals, Inc., priority 2019, dated 2025).

Target: T1, hMC2 receptor (crude hMC2R membranes from CRE-bla-CHO-K1 cells stably expressing hMC2 receptor and hMRAP accessory protein) (Homo sapiens, UniProt Q01718)
T1 construct: crude membrane fractions
Assay: hMC2 membrane binding assay ([125I]ACTH (1-39) Tyr23, SPA)
Conditions: displacement of 0.2 nM [125I]ACTH (1-39) Tyr23 from hMC2R membranes, 1.5 hours at room temperature; read-out: MC2R binding potency
Summary of the method: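 Ki values come from non-linear regression of SPA scintillation counts, with compounds displacing [125I]ACTH(1-39) Tyr23. Membranes come from CRE-bla-CHO-K1 cells stably expressing hMC2 receptor together with hMRAP. They are preincubated with WGA-coated PVT SPA beads in 50 mM HEPES pH 7.4 with 0.20% BSA, Mg2+, Ca2+ and protease inhibitors.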

T1 sequence (Q01718 whole entry): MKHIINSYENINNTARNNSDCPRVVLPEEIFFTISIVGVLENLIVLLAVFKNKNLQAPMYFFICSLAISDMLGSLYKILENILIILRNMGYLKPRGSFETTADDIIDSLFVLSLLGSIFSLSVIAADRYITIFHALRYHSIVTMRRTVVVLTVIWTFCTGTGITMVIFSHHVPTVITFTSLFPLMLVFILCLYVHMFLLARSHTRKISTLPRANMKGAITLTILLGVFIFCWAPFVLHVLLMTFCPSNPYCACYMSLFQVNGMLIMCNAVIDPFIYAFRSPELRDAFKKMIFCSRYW
T1 sequence (Q8TCY5 whole entry partner): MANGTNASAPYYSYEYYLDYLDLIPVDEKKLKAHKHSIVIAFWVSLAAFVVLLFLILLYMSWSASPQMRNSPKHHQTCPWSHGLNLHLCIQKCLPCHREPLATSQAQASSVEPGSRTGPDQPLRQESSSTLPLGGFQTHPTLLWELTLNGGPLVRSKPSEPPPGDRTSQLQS

Row | SMILES | Ki
1 | CN1CC[C@@H](NC(=O)C2(c3ccc(-c4cccc5c4OCC5)nc3)CCN(c3ccc(C(F)(F)F)cc3C#N)CC2)C1 [Compound 1-53, 1-[2-cyano-4-(trifluoromethyl)phenyl]-4-[6-(2,3-dihydro-1-benzofuran-7-yl)pyridin-3-yl]-N-[(3R)-1-methylpyrrolidin-3-yl]piperidine-4-carboxamide] | 10 to 100 nM
2 | CN1CC[C@H](NC(=O)C2(c3ccc(-c4ccc[nH]4)nc3)CCN(c3ccc(C(F)(F)F)cc3C#N)CC2)C1 [Compound 1-143, 1-[2-cyano-4-(trifluoromethyl)phenyl]-N-[(3S)-1-methylpyrrolidin-3-yl]-4-[6-(1H-pyrrol-2-yl)pyridin-3-yl]piperidine-4-carboxamide] | < 10 nM
3 | CN1[C@@H]2CC[C@H]1[C@@H](NC(=O)C1(c3ccc(-c4cccn4C)nc3)CCN(c3ccc(C(F)(F)F)cc3C#N)CC1)C2 (racemic) [Compound 1-251, rac-1-[2-cyano-4-(trifluoromethyl)phenyl]-4-[6-(1-methyl-1H-pyrrol-2-yl)pyridin-3-yl]-N-[(1S,2S,4R)-7-methyl-7-azabicyclo[2.2.1]heptan-2-yl]piperidine-4-carboxamide] | 10 to 100 nM
4 | CN1CC[C@H](NC(=O)C2(c3ccc(-c4ccccc4C4CC4)nc3)CCN(c3ccc(C(F)(F)F)cc3C#N)CC2)C1 [Compound 1-121, 1-[2-cyano-4-(trifluoromethyl)phenyl]-4-[6-(2-cyclopropylphenyl)pyridin-3-yl]-N-[(3S)-1-methylpyrrolidin-3-yl]piperidine-4-carboxamide] | < 10 nM
5 | CCOc1ncccc1-c1ncc(C2(C(=O)NCCNC)CCN(c3ccc(C(F)(F)F)cc3F)CC2)cc1F [Compound 1-287, 4-{2′-ethoxy-3-fluoro-[2,3′-bipyridin]-5-yl}-1-[2-fluoro-4-(trifluoromethyl)phenyl]-N-[2-(methylamino)ethyl]piperidine-4-carboxamide] | < 10 nM
6 | CCOc1ccc(F)cc1-c1ccc(C2(C(=O)N[C@@H]3CCN(C)C3)CCN(c3ccc(C(F)(F)F)cc3C#N)CC2)cn1 [Compound 1-69, 1-[2-cyano-4-(trifluoromethyl)phenyl]-4-[6-(2-ethoxy-5-fluorophenyl)pyridin-3-yl]-N-[(3R)-1-methylpyrrolidin-3-yl]piperidine-4-carboxamide] | < 10 nM
7 | CCOc1ncccc1-c1ccc(C2(C(=O)N[C@@H](C)CNC)CCN(c3ccc(Cl)cc3Cl)CC2)cn1 [Compound 1-322, 1-(2,4-dichlorophenyl)-4-{2′-ethoxy-[2,3′-bipyridin]-5-yl}-N-[(2S)-1-(methylamino)propan-2-yl]piperidine-4-carboxamide] | < 10 nM
8 | COc1ccccc1-c1ncc(C2(C(=O)N[C@H]3CCN(C)C3)CCN(c3ccc(C(F)(F)F)nc3C#N)CC2)cc1F [Compound 1-128, 1-[2-cyano-6-(trifluoromethyl)pyridin-3-yl]-4-[5-fluoro-6-(2-methoxyphenyl)pyridin-3-yl]-N-[(3S)-1-methylpyrrolidin-3-yl]piperidine-4-carboxamide] | < 10 nM
9 | CCOc1ccccc1-c1ccc(C2(C(=O)N[C@H]3CCN(C)C3)CCN(c3ccc(C(F)(F)F)cc3F)CC2)nn1 [Compound 1-174, 4-[6-(2-ethoxyphenyl)pyridazin-3-yl]-1-[2-fluoro-4-(trifluoromethyl)phenyl]-N-[(3S)-1-methylpyrrolidin-3-yl]piperidine-4-carboxamide] | < 10 nM
10 | COc1sccc1-c1ccc(C2(C(=O)N[C@H]3CCN(C)C3)CCN(c3ccc(C(F)(F)F)cc3C#N)CC2)cn1 [Compound 1-119, 1-[2-cyano-4-(trifluoromethyl)phenyl]-4-[6-(2-methoxythiophen-3-yl)pyridin-3-yl]-N-[(3S)-1-methylpyrrolidin-3-yl]piperidine-4-carboxamide] | < 10 nM
11 | CN1CC[C@@H](C(=O)NC2(c3ccc(-c4cccn4C)nc3)CCN(c3ccc(C(F)(F)F)cc3C#N)CC2)C1 [Compound 2-47, (3R)—N-{1-[2-cyano-4-(trifluoromethyl)phenyl]-4-[6-(1-methyl-1H-pyrrol-2-yl)pyridin-3-yl]piperidin-4-yl}-1-methylpyrrolidine-3-carboxamide] | < 10 nM
12 | COc1ccccc1-c1ncc(C2(NC(=O)O[C@H]3CCN(C)C3)CCN(c3ccc(C(F)(F)F)cc3C#N)CC2)cc1F [Compound 2-49, (3S)-1-methylpyrrolidin-3-yl N-{1-[2-cyano-4-(trifluoromethyl)phenyl]-4-[5-fluoro-6-(2-methoxyphenyl)pyridin-3-yl]piperidin-4-yl}carbamate] | < 10 nM
13 | COc1ccccc1-c1ccc(C2(C(=O)NC[C@H]3CCN3)CCN(c3ccc(C(F)(F)F)cc3C#N)CC2)cn1 [Compound 1-236, N-{[(2R)-azetidin-2-yl]methyl}-1-[2-cyano-4-(trifluoromethyl)phenyl]-4-[6-(2-methoxyphenyl)pyridin-3-yl]piperidine-4-carboxamide] | < 10 nM
14 | CN1CC[C@H](NC(=O)C2(c3ccc(-c4cccn4C)nn3)CCN(c3ccc(C(F)(F)F)cc3C#N)CC2)C1 [Compound 1-168, 1-[2-cyano-4-(trifluoromethyl)phenyl]-4-[6-(1-methyl-1H-pyrrol-2-yl)pyridazin-3-yl]-N-[(3S)-1-methylpyrrolidin-3-yl]piperidine-4-carboxamide] | < 10 nM
15 | CCOc1ncccc1-c1ccc(C2(C(=O)NC3CN(C)CC3O)CCN(c3ccc(C(F)(F)F)cc3C#N)CC2)cn1 (single isomer, unassigned) [Compound 1-46, 1-[2-cyano-4-(trifluoromethyl)phenyl]-4-{2′-ethoxy-[2,3′-bipyridin]-5-yl}-N-[(3R,4R)*-4-hydroxy-1-methylpyrrolidin-3-yl]piperidine-4-carboxamide] | < 10 nM
16 | CNCCNC(=O)C1(c2ccc(-c3cccn3C)nc2)CCN(c2ccc(C(F)(F)F)cc2C#N)CC1 [Compound 1-215, 1-[2-cyano-4-(trifluoromethyl)phenyl]-4-[6-(1-methyl-1H-pyrrol-2-yl)pyridin-3-yl]-N-[2-(methylamino)ethyl]piperidine-4-carboxamide] | < 10 nM
17 | C[C@@H](CN(C)C)NC(=O)C1(c2ccc(-c3cccn3C)nc2)CCN(c2ccc(C(F)(F)F)cc2F)CC1 [Compound 1-297, N-[(2S)-1-(dimethylamino)propan-2-yl]-1-[2-fluoro-4-(trifluoromethyl)phenyl]-4-[6-(1-methyl-1H-pyrrol-2-yl)pyridin-3-yl]piperidine-4-carboxamide] | < 10 nM
18 | CCOc1ncccc1-c1ccc(C2(C(=O)N[C@@H]3CCN(C)C3)CCN(c3c(Cl)cc(C(F)(F)F)cc3C#N)CC2)cc1 [Compound 1-29, 1-[2-chloro-6-cyano-4-(trifluoromethyl)phenyl]-4-[4-(2-ethoxypyridin-3-yl)phenyl]-N-[(3R)-1-methylpyrrolidin-3-yl]piperidine-4-carboxamide] | 10 to 100 nM
19 | CN1CCC[C@@H]1CNC(=O)C1(c2ccc(-c3cccn3C)nc2)CCN(c2ccc(C(F)(F)F)cc2C#N)CC1 [Compound 1-232, 1-[2-cyano-4-(trifluoromethyl)phenyl]-4-[6-(1-methyl-1H-pyrrol-2-yl)pyridin-3-yl]-N-{[(2R)-1-methylpyrrolidin-2-yl]methyl}piperidine-4-carboxamide] | < 10 nM
20 | COc1ncccc1-c1ncc(C2(C(=O)NCCN(C)C)CCN(c3ccc(C(F)(F)F)cc3Cl)CC2)cc1F [Compound 1-302, 1-[2-chloro-4-(trifluoromethyl)phenyl]-N-[2-(dimethylamino)ethyl]-4-{3-fluoro-2′-methoxy-[2,3′-bipyridin]-5-yl}piperidine-4-carboxamide] | < 10 nM
21 | COc1ccccc1-c1ncc(C2(NC(=O)N[C@H]3CCN(C)C3)CCN(c3ccc(C(F)(F)F)cc3C#N)CC2)cc1F [Compound 2-51, 1-{1-[2-cyano-4-(trifluoromethyl)phenyl]-4-[5-fluoro-6-(2-methoxyphenyl)pyridin-3-yl]piperidin-4-yl}-3-[(3S)-1-methylpyrrolidin-3-yl]urea] | < 10 nM
22 | CCCc1ccccc1-c1ccc(C2(C(=O)N[C@@H]3CCN(C)C3)CCN(c3ccc(C(F)(F)F)cc3C#N)CC2)cn1 [Compound 1-117, 1-[2-cyano-4-(trifluoromethyl)phenyl]-N-[(3R)-1-methylpyrrolidin-3-yl]-4-[6-(2-propylphenyl)pyridin-3-yl]piperidine-4-carboxamide] | < 10 nM
23 | COc1ccccc1-c1ccc(C2(NC(=O)NCCN(C)C)CCN(c3ccc(C(F)(F)F)cc3C#N)CC2)cn1 [Compound 2-58, 1-{1-[2-cyano-4-(trifluoromethyl)phenyl]-4-[6-(2-methoxyphenyl)pyridin-3-yl]piperidin-4-yl}-3-[2-(dimethylamino)ethyl]urea] | < 10 nM
24 | CCOc1ncccc1-c1ccc(C2(C(=O)N[C@H]3CCN(C)C3)CCN(c3ncc(C(F)(F)F)cc3Cl)CC2)cn1 [Compound 1-150, 1-[3-chloro-5-(trifluoromethyl)pyridin-2-yl]-4-{2′-ethoxy-[2,3′-bipyridin]-5-yl}-N-[(3S)-1-methylpyrrolidin-3-yl]piperidine-4-carboxamide] | 10 to 100 nM
25 | CNCCNC(=O)C1(c2ccc(-c3ccccc3OC)nc2)CCN(c2ccc(C(F)(F)F)cc2Cl)CC1 [Compound 1-257, 1-[2-chloro-4-(trifluoromethyl)phenyl]-4-[6-(2-methoxyphenyl)pyridin-3-yl]-N-[2-(methylamino)ethyl]piperidine-4-carboxamide] | < 10 nM
26 | CCOc1ncccc1-c1ncc(C2(C(=O)NCCNC)CCN(c3ccc(C(F)(F)F)cc3C#N)CC2)cc1F [Compound 1-311, 1-[2-cyano-4-(trifluoromethyl)phenyl]-4-{2′-ethoxy-3-fluoro-[2,3′-bipyridin]-5-yl}-N-[2-(methylamino)ethyl]piperidine-4-carboxamide] | < 10 nM
